Series [1] concerns myeloperoxidase (MPO) activity in lung tissue. As to the kind of experiment: Myeloperoxidase (MPO) activity assay and MPO immunostaining of lung tissue of hyperoxia-exposed rats. It counts as in vivo, Sprague Dawley rats. The source says:
(§1) All experimental protocols for animal treatments were approved by the University of Minnesota Institutional Animal Care and Use Committee. […] The room-air control rats were kept in the University animal housing facility. At the end of hyperoxic exposure, rats were sacrificed by intraperitoneal pentobarbital injection, and the lungs were harvested; the right lobes were allocated for histopathology, measurement of lung tissue myeloperoxidase (MPO) activity and wet-to-dry weight ratio. The left lobes underwent bronchoalveolar lavage (BAL) to determine BAL protein concentrations and differential cell counts.
To quantify the neutrophil activity in the lung, MPO activity was assayed as previously described (Abraham et al., J Immunol 165:2950-2954, 2000). Lung tissues without prior lavage were frozen in liquid nitrogen, weighed, and stored at −86° C. The lungs were homogenized for 30 seconds in 1.5 ml 20 mM potassium phosphate, pH 7.4, and centrifuged at 4° C. for 30 minutes at 40,000×g. The pellet was resuspended in 1.5 ml 50 mM potassium phosphate, pH 6.0, containing 0.5% hexadecyltrimethylammonium bromide, sonicated for 90 seconds, incubated at 60° C. for two hours, and centrifuged at 14,000 rpm for 30 minutes at 4° C. The supernatant was assayed for peroxidase activity corrected to lung weight. MPO was expressed as activity per gram of lung tissue. […]

Series [2] in a line: Serum total T3 measurement (RIA) in hyperoxia-exposed rats. It counts as in vivo, Sprague Dawley rats. The following applies: rats exposed to 95% oxygen for 60 hours, intraperitoneal T3 supplementation 50 μg/kg bodyweight/24 hours, vs hyperoxia alone. The method, then:
FIG. 13. […] Rats were exposed to ˜ 95% of oxygen for 60 hours. […] RA: room air control.
as §1
Blood samples were collected at the end of 60 hours of hyperoxia and were centrifuged at 13,000 rpm for 30 minutes at 4° C. Supernatant was stored at −20° C.

Structures are written as SMILES.

On to `N[C@@H](Cc1cc(I)c(Oc2ccc(O)c(I)c2)c(I)c1)C(=O)O` [T3, triiodothyronine], for which the “MPO-positive cells in the lungs (immunostaining)” value in series [1] (T3-injected rats exposed to 95% oxygen for 60 hours vs hyperoxic lungs without T3) is given as “fewer MPO-positive cells”. For the same compound, the “lung MPO activity” value in series [1] (rats, 60 hours of hyperoxia, T3 supplementation vs hyperoxia alone) is recorded as “significantly reduced the hyperoxia-induced MPO activity”. The “serum total T3 level” value in series [2] is “augmented serum total T3”.
